This note sets out measurements from ChEMBL document CHEMBL1255252, “E240V substitution increases catalytic efficiency toward ceftazidime in a new natural TEM-type extended-spectrum beta-lactamase, TEM-149, from Enterobacter aerogenes and Serratia marcescens clinical isolates” (2008).

The subject of one test is Serratia marcescens. In words: Antimicrobial activity against Serratia marcescens isolate CT-118 by broth macrodilution method. In kind it is functional.
The subject of test [1] is Escherichia coli. In words: Antimicrobial activity against Escherichia coli HB101 expressing recombinant plasmid encoded TEM-149 by broth macrodilution method. In kind it is functional.
Test [2] concerns Escherichia coli. Put plainly: Antimicrobial activity against Escherichia coli HB101 harboring empty vector pBK-SK by broth macrodilution method. In kind it is functional.
For test [3], the system named is Escherichia coli. In words: Antimicrobial activity against Escherichia coli HB101 expressing plasmid encoded TEM-149 T182M mutant by broth macrodilution method. The class given is functional.
Test [4] in a line: Activity of Beta-lactamase TEM-149 expressed in Escherichia coli HB101.
Test [5] in a line: Ratio of Kcat to Km for Beta-lactamase TEM-149 expressed in Escherichia coli HB101.
Test [6] in a line: Activity of Beta-lactamase TEM-149 T182M mutant expressed in Escherichia coli HB101.
Test [7] in a line: Ratio of Kcat to Km for Beta-lactamase TEM-149 T182M mutant expressed in Escherichia coli HB101.
A short description of test [8]: Activity of Beta-lactamase TEM-10.
Test [9] in a line: Ratio of Kcat to Km for Beta-lactamase TEM-10.
For a further test, the system named is Klebsiella aerogenes. In words: Antimicrobial activity against Enterobacter aerogenes isolate SS-13 by broth macrodilution method. In kind it is functional.

Values after ≈ are worked out from the molar mass of the structure shown.

As usually defined, the MIC is the least concentration at which growth counts as inhibited. Usually Km stands for the concentration of substrate that gives half-maximal velocity. The term kcat denotes the number of substrate molecules converted per active site and unit of time at saturation. One may read the kcat/Km as the second-order rate constant that governs catalysis at low substrate concentration. With `CO/N=C(\C(=O)N[C@@H]1C(=O)N2C(C(=O)O)=C(COC(C)=O)CS[C@H]12)c1csc(N)n1` [CEFOTAXIME], the minimal inhibitory concentration (MIC) is over 128 µg/mL against Serratia marcescens; 1 µg/mL in the test on Escherichia coli [1]; 4 µg/mL (≈ 8.78 µM) with Escherichia coli [2]; under 0.125 µg/mL with Escherichia coli [3]; over 128 µg/mL in the test on Klebsiella aerogenes. The figures for the Km in test [4], in test [6] and in test [8] were 43 µM, 32 µM and 30 µM, respectively. For the same compound, the kcat in test [4] is 0.07 s⁻¹; in [6], 0.41 s⁻¹; in [8] it was 0.3 s⁻¹. For the same compound, the kcat/Km came out at 1600 M⁻¹ s⁻¹ in test [5], 13000 M⁻¹ s⁻¹ in [7] and 10000 M⁻¹ s⁻¹ in [9].

With `CCN1CCN(C(=O)N[C@@H](C(=O)N[C@@H]2C(=O)N3[C@@H]2SC(C)(C)[C@@H]3C(=O)O)c2ccccc2)C(=O)C1=O` [PIPERACILLIN], the minimal inhibitory concentration (MIC) against Serratia marcescens was over 256 µg/mL; in the test on Escherichia coli [1], over 256 µg/mL; in the test on Escherichia coli [2] it was 32 µg/mL (≈ 61.8 µM); against Escherichia coli [3] it was 1 µg/mL (≈ 1.93 µM); against Klebsiella aerogenes, over 256 µg/mL. Further, the Km is 1.4 µM in test [4] and 3.4 µM in test [6]. Also, the kcat in test [4] was found to be 2.7 s⁻¹; in test [6] it was 5 s⁻¹. The specificity constant (kcat/Km) is 1.92e+06 M⁻¹ s⁻¹ in test [5] and 1.47e+06 M⁻¹ s⁻¹ in test [7].

With `C[C@H]1[C@H](NC(=O)/C(=N\OC(C)(C)C(=O)O)c2csc(N)n2)C(=O)N1S(=O)(=O)O` [AZTREONAM], the MIC with Serratia marcescens is over 64 µg/mL; with Escherichia coli [1] it was over 64 µg/mL; against Escherichia coli [2], 64 µg/mL (≈ 147 µM); against Escherichia coli [3] it was under 0.125 µg/mL; against Klebsiella aerogenes, over 64 µg/mL. The Km in test [4] turned out to be 51 µM; in test [6], 27 µM; in test [8], 28 µM. Besides, the catalytic constant (kcat) in [4] turned out to be 4.7 s⁻¹; in test [6], 3.6 s⁻¹; in [8], 2 s⁻¹. The kcat/Km in test [5] came out at 92000 M⁻¹ s⁻¹; in [7], 130000 M⁻¹ s⁻¹; in test [9], 70000 M⁻¹ s⁻¹.

Turning to `CC1(C)S[C@@H]2[C@H](NC(=O)Cc3ccccc3)C(=O)N2[C@H]1C(=O)O`, the Km in test [4] was 0.6 µM; in test [6], 0.7 µM; in [8], 2 µM. The values for the catalytic constant (kcat) in [4], in [6] and in test [8] were 3.5 s⁻¹, 10.5 s⁻¹ and 51 s⁻¹, respectively. For the same compound, the figures for the kcat/Km in [5], in [7] and in test [9] were 5.8e+06 M⁻¹ s⁻¹, 1.5e+07 M⁻¹ s⁻¹ and 2.55e+07 M⁻¹ s⁻¹, respectively.

As for `CO/N=C(\C(=O)N[C@@H]1C(=O)N2C(C(=O)[O-])=C(C[N+]3(C)CCCC3)CS[C@H]12)c1csc(N)n1`, the minimum inhibitory concentration (MIC) in the test with Serratia marcescens was over 64 µg/mL; in the test with Escherichia coli [1], 8 µg/mL; in the test with Escherichia coli [2] it was 1 µg/mL (≈ 2.08 µM); against Escherichia coli [3], under 0.125 µg/mL; in the test on Klebsiella aerogenes, over 64 µg/mL. For the same compound, the Km in test [4] is 16 µM; in [6], 30 µM. The results for the kcat in test [4] and in test [6] were 2.4 s⁻¹ and 0.43 s⁻¹, respectively. Moreover, the specificity constant (kcat/Km) was determined as 150000 M⁻¹ s⁻¹ in test [5] and 14000 M⁻¹ s⁻¹ in test [7].

Regarding `Cc1nnc(SCC2=C(C(=O)O)N3C(=O)[C@@H](NC(=O)Cn4cnnn4)[C@H]3SC2)s1` [CEFAZOLIN], the MIC against Serratia marcescens was over 64 µg/mL; with Escherichia coli [1], 32 µg/mL; with Escherichia coli [2], 4 µg/mL (≈ 8.8 µM); in the test on Escherichia coli [3], 1 µg/mL (≈ 2.2 µM); against Klebsiella aerogenes it was over 64 µg/mL. In addition, the Michaelis-Menten constant (Km) in test [4] was determined as 68 µM; in test [6], 35 µM; in test [8] it was 417 µM. The kcat in test [4] was 2.2 s⁻¹; in test [6] it was 0.56 s⁻¹; in test [8] it was 12.5 s⁻¹. For the same compound, the results for the kcat/Km in [5], in test [7] and in [9] were 32000 M⁻¹ s⁻¹, 16000 M⁻¹ s⁻¹ and 30000 M⁻¹ s⁻¹, respectively.

`CC1(C)S[C@@H]2[C@H](NC(=O)[C@H](N)c3ccc(O)cc3)C(=O)N2[C@H]1C(=O)O` [AMOXICILLIN]: the MIC with Serratia marcescens was over 64 µg/mL; with Escherichia coli [1] it was over 64 µg/mL; in the test on Escherichia coli [3] it was 8 µg/mL (≈ 21.9 µM); against Klebsiella aerogenes it was over 64 µg/mL.

For the compound `CC1(C)S[C@@H]2[C@H](NC(=O)[C@H](N)c3ccccc3)C(=O)N2[C@H]1C(=O)O`, the Michaelis constant (Km) in [4] came to 5 µM; in [6] it was 19 µM; in test [8], 4 µM. For the same compound, the turnover number (kcat) in test [4] was determined as 5.4 s⁻¹; in test [6], 2.4 s⁻¹; in test [8] it was 12.5 s⁻¹. Besides, the figures for the specificity constant (kcat/Km) in test [5], in [7] and in test [9] were 1.08e+06 M⁻¹ s⁻¹, 127000 M⁻¹ s⁻¹ and 3.1e+06 M⁻¹ s⁻¹, respectively.

Regarding `CC(C)(O/N=C(\C(=O)N[C@@H]1C(=O)N2C(C(=O)[O-])=C(C[n+]3ccccc3)CS[C@H]12)c1csc(N)n1)C(=O)O` [CEFTAZIDIME], the minimum inhibitory concentration (MIC) against Serratia marcescens is over 64 µg/mL; in the test on Escherichia coli [1], over 64 µg/mL; against Escherichia coli [2], over 64 µg/mL; with Escherichia coli [3], 0.5 µg/mL (≈ 0.915 µM); in the test with Klebsiella aerogenes, over 64 µg/mL. The Km in test [4] turned out to be 19 µM; in test [6], 26 µM; in test [8] it was 607 µM. The turnover number (kcat) came out at 8.3 s⁻¹ in test [4], 8.3 s⁻¹ in test [6] and 17 s⁻¹ in [8]. Besides, the specificity constant (kcat/Km) amounted to 440000 M⁻¹ s⁻¹ in test [5], 320000 M⁻¹ s⁻¹ in test [7] and 28000 M⁻¹ s⁻¹ in [9].
